Laboratory results as given in US11771738B2 (Zoetis Services LLC, priority 2018, dated 2023).
Where two headings read alike, the source gives them in different places. Marks after values point to notes of the source that are not given here.

Experiments:
Assay type in all cases: cell-based
[1] = tested on: third stage larvae of Haemonchus contortus; experiment: Haemonchus contortus, Larvae Stage 3 (HcL3) In Vitro Assay; conditions: for minimal effective concentration: Haemonchus contortus, 96 h
[2] = tested on: microfilariae of Dirofilaria immitis; experiment: Dirofilaria immitis, Microfilaria (DiMf) In Vitro Assay; conditions: for minimal effective concentration: Dirofilaria immitis, 72 h, read-out: DiMf MED, Minimum Effective Dose, D. immitis microfilariae motility, in vitro
D. immitis L4 larvae = experiment: Dirofilaria immitis, L4 Stage (DiL4) In Vitro Assay; conditions: for minimal effective concentration: Dirofilaria immitis, 72 h, read-out: DiL4 MED, Minimum Effective Dose, D. immitis L4 larvae motility, in vitro; for DiMf/DiL4: larval stage selectivity, ratio of DiMf MED to DiL4 MED
[3] = read-out: HcL3 MED, Haemonchus contortus third stage larvae in vitro, class mark appended to the Ex # in Table 3
[4] = read-out: HcL3 MED, Minimum Effective Dose, H. contortus third stage larvae, approximately 96 hours

Structure (SMILES) | minimal effective concentration [1, 3] [µM] | minimal effective concentration [1, 4] [µM] | minimal effective concentration ([1]; read-out: HcL3 MED, approximately 96 hours incubation, multiple-resistant field isolate) [µM] | minimal effective concentration [2] [µM] | minimal effective concentration (D. immitis L4 larvae) [µM] | DiMf/DiL4 (D. immitis L4 larvae) | HcL3 MED ([1]; Haemonchus contortus third stage larvae in vitro, class mark appended to the Ex # in Table 3) | HcL3 MED ([1]; Minimum Effective Dose, H. contortus third stage larvae, approximately 96 hours) [µM] | DiMf MED ([2]; Minimum Effective Dose, D. immitis microfilariae motility, in vitro) [nM] | DiL4 MED (D. immitis L4 larvae; Minimum Effective Dose, D. immitis L4 larvae motility, in vitro) [nM]
COc1nccnc1Cc1ccc(C[C@H]2OC(=O)[C@H](CC(C)C)N(C)C(=O)[C@@H](C)OC(=O)[C@H](CC(C)C)N(C)C(=O)[C@@H](Cc3ccc(Cc4nccnc4OC)cc3)OC(=O)[C@H](CC(C)C)N(C)C(=O)[C@@H](C)OC(=O)[C@H](CC(C)C)N(C)C2=O)cc1 [Example 3-193, (3S,6R,9S,12R,15S,18R,21S,24R)-3,9,15,21-tetraisobutyl-6,18-bis(4-((3-methoxypyrazin-2-yl)methyl)benzyl)-4,10,12,16,22,24-hexamethyl-1,7,13,19-tetraoxa-4,10,16,22-tetraazacyclotetracosan-2,5,8,11,14,17,20,23-octaone] | < 1 | 1 | ≤ 1 | 0.002 | 0.0004 | 5 |  |  |  | 
CC(C)C[C@H]1C(=O)O[C@H](Cc2ccc(Cc3cncc(F)c3)cc2)C(=O)N(C)[C@@H](CC(C)C)C(=O)O[C@H](C)C(=O)N(C)[C@@H](CC(C)C)C(=O)O[C@H](Cc2ccc(Cc3cncc(F)c3)cc2)C(=O)N(C)[C@@H](CC(C)C)C(=O)O[C@H](C)C(=O)N1C [Example 3-194, (3S,6R,9S,12R,15S,18R,21S,24R)-6,18-bis(4-((5-fluoropyridin-3-yl)methyl)benzyl)-3,9,15,21-tetraisobutyl-4,10,12,16,22,24-hexamethyl-1,7,13,19-tetraoxa-4,10,16,22-tetraazacyclotetracosan-2,5,8,11,14,17,20,23-octaone] |  | > 100 |  | 0.001 | 0.001 | 1 |  |  |  | 
COc1ccc(C(C)c2ccc(C[C@H]3OC(=O)[C@H](CC(C)C)N(C)C(=O)[C@@H](C)OC(=O)[C@H](CC(C)C)N(C)C(=O)[C@@H](Cc4ccc(C(C)c5ccc(OC)nc5)cc4)OC(=O)[C@H](CC(C)C)N(C)C(=O)[C@@H](C)OC(=O)[C@H](CC(C)C)N(C)C3=O)cc2)cn1 (stereo partly drawn) [Example 3-207, (3S,6R,9S,12R,15S,18R,21S,24R)-3,9,15,21-tetraisobutyl-6,18-bis(4-(1-(6-methoxypyridin-3-yl)ethyl)benzyl)-4,10,12,16,22,24-hexamethyl-1,7,13,19-tetraoxa-4,10,16,22-tetraazacyclotetracosan-2,5,8,11,14,17,20,23-octaone] |  | > 100 |  | 0.05 | 0.001 | 50 |  |  |  | 
COc1nc(C)c(Cc2ccc(C[C@H]3OC(=O)[C@H](CC(C)C)N(C)C(=O)[C@@H](C)OC(=O)[C@H](CC(C)C)N(C)C(=O)[C@@H](Cc4ccc(Cc5sc(OC)nc5C)cc4)OC(=O)[C@H](CC(C)C)N(C)C(=O)[C@@H](C)OC(=O)[C@H](CC(C)C)N(C)C3=O)cc2)s1 [Example 3-209, (3S,6R,9S,12R,15S,18R,21S,24R)-3,9,15,21-tetraisobutyl-6,18-bis(4-((2-methoxy-4-methylthiazol-5-yl)methyl)benzyl)-4,10,12,16,22,24-hexamethyl-1,7,13,19-tetraoxa-4,10,16,22-tetraazacyclotetracosan-2,5,8,11,14,17,20,23-octaone] |  | > 100 |  | 0.01 | 0.0005 | 20 |  |  |  | 
COc1cccnc1Cc1ccc(C[C@H]2OC(=O)[C@H](CC(C)C)N(C)C(=O)[C@@H](C)OC(=O)[C@H](CC(C)C)N(C)C(=O)[C@@H](Cc3ccc(Cc4ncccc4OC)cc3)OC(=O)[C@H](CC(C)C)N(C)C(=O)[C@@H](C)OC(=O)[C@H](CC(C)C)N(C)C2=O)cc1 [Example 3-215] |  |  |  |  |  | >3.5 | 3-215* (Examples with an asterisk (*) have HcL3 MED values≤1 μM) | 1 | 0.7 | <0.2
COc1ccnc(Cc2ccc(C[C@H]3OC(=O)[C@H](CC(C)C)N(C)C(=O)[C@@H](C)OC(=O)[C@H](CC(C)C)N(C)C(=O)[C@@H](Cc4ccc(Cc5nccc(OC)n5)cc4)OC(=O)[C@H](CC(C)C)N(C)C(=O)[C@@H](C)OC(=O)[C@H](CC(C)C)N(C)C3=O)cc2)n1 [Example 3-217, (3S,6R,9S,12R,15S,18R,21S,24R)-3,9,15,21-tetraisobutyl-6,18-bis(4-((4-methoxypyrimidin-2-yl)methyl)benzyl)-4,10,12,16,22,24-hexamethyl-1,7,13,19-tetraoxa-4,10,16,22-tetraazacyclotetracosan-2,5,8,11,14,17,20,23-octaone] | 1 to 3.3 | 3.3 |  | 0.003 | < 0.0007 | >4.3 |  |  |  | 
COc1cncc(Cc2ccc(C[C@H]3OC(=O)[C@H](CC(C)C)N(C)C(=O)[C@@H](C)OC(=O)[C@H](CC(C)C)N(C)C(=O)[C@@H](Cc4ccc(Cc5cncc(OC)n5)cc4)OC(=O)[C@H](CC(C)C)N(C)C(=O)[C@@H](C)OC(=O)[C@H](CC(C)C)N(C)C3=O)cc2)n1 [Example 3-218, (3S,6R,9S,12R,15S,18R,21S,24R)-3,9,15,21-tetraisobutyl-6,18-bis(4-((6-methoxypyrazin-2-yl)methyl)benzyl)-4,10,12,16,22,24-hexamethyl-1,7,13,19-tetraoxa-4,10,16,22-tetraazacyclotetracosan-2,5,8,11,14,17,20,23-octaone] |  | > 23 |  | 0.01 | 0.0008 | 12.5 |  |  |  | 
COc1ncccc1C(C)(F)c1ccc(C[C@H]2OC(=O)[C@H](CC(C)C)N(C)C(=O)[C@@H](C)OC(=O)[C@H](CC(C)C)N(C)C(=O)[C@@H](Cc3ccc(C(C)(F)c4cccnc4OC)cc3)OC(=O)[C@H](CC(C)C)N(C)C(=O)[C@@H](C)OC(=O)[C@H](CC(C)C)N(C)C2=O)cc1 (stereo partly drawn) [Example 3-220, (3S,6R,9S,12R,15S,18R,21S,24R)-6,18-bis(4-(1-fluoro-1-(2-methoxypyridin-3-yl)ethyl)benzyl)-3,9,15,21-tetraisobutyl-4,10,12,16,22,24-hexamethyl-1,7,13,19-tetraoxa-4,10,16,22-tetraazacyclotetracosan-2,5,8,11,14,17,20,23-octaone] |  | > 100 |  | 0.005 | 0.0007 | 7.1 |  |  |  | 
Cc1ccncc1Cc1ccc(C[C@H]2OC(=O)[C@H](CC(C)C)N(C)C(=O)[C@@H](C)OC(=O)[C@H](CC(C)C)N(C)C(=O)[C@@H](Cc3ccc(Cc4cnccc4C)cc3)OC(=O)[C@H](CC(C)C)N(C)C(=O)[C@@H](C)OC(=O)[C@H](CC(C)C)N(C)C2=O)cc1 [Example 3-223, (3S,6R,9S,12R,15S,18R,21S,24R)-3,9,15,21-tetraisobutyl-4,6,10,16,18,22-hexamethyl-12,24-bis(4-((4-methylpyridin-3-yl)methyl)benzyl)-1,7,13,19-tetraoxa-4,10,16,22-tetraazacyclotetracosan-2,5,8,11,14,17,20,23-octaone] |  | 5.7 |  | 0.005 | 0.0007 | 7.1 |  |  |  | 
COc1cccc(C(C)(F)c2ccc(C[C@H]3OC(=O)[C@H](CC(C)C)N(C)C(=O)[C@@H](C)OC(=O)[C@H](CC(C)C)N(C)C(=O)[C@@H](Cc4ccc(C(C)(F)c5cccc(OC)n5)cc4)OC(=O)[C@H](CC(C)C)N(C)C(=O)[C@@H](C)OC(=O)[C@H](CC(C)C)N(C)C3=O)cc2)n1 (stereo partly drawn) [Example 3-225, (3S,6R,9S,12R,15S,18R,21S,24R)-6,18-bis(4-(1-fluoro-1-(6-methoxypyridin-2-yl)ethyl)benzyl)-3,9,15,21-tetraisobutyl-4,10,12,16,22,24-hexamethyl-1,7,13,19-tetraoxa-4,10,16,22-tetraazacyclotetracosan-2,5,8,11,14,17,20,23-octaone] |  | > 100 |  | 0.3 | 0.0007 | 429 |  |  |  | 
CC(C)C[C@H]1C(=O)O[C@H](Cc2ccc(Cc3snnc3C(C)C)cc2)C(=O)N(C)[C@@H](CC(C)C)C(=O)O[C@H](C)C(=O)N(C)[C@@H](CC(C)C)C(=O)O[C@H](Cc2ccc(Cc3snnc3C(C)C)cc2)C(=O)N(C)[C@@H](CC(C)C)C(=O)O[C@H](C)C(=O)N1C [Example 3-228, (3S,6R,9S,12R,15S,18R,21S,24R)-3,9,15,21-tetraisobutyl-6,18-bis(4-((4-isopropyl-1,2,3-thiadiazol-5-yl)methyl)benzyl)-4,10,12,16,22,24-hexamethyl-1,7,13,19-tetraoxa-4,10,16,22-tetraazacyclotetracosan-2,5,8,11,14,17,20,23-octaone] |  | > 100 |  | 0.01 | 0.0005 | 20 |  |  |  | 
CC(C)C[C@H]1C(=O)O[C@H](Cc2ccc(Cc3cccnc3C(F)(F)F)cc2)C(=O)N(C)[C@@H](CC(C)C)C(=O)O[C@H](C)C(=O)N(C)[C@@H](CC(C)C)C(=O)O[C@H](Cc2ccc(Cc3cccnc3C(F)(F)F)cc2)C(=O)N(C)[C@@H](CC(C)C)C(=O)O[C@H](C)C(=O)N1C [Example 3-238, (3S,6R,9S,12R,15S,18R,21S,24R)-3,9,15,21-tetraisobutyl-4,6,10,16,18,22-hexamethyl-12,24-bis(4-((2-(trifluoromethyl)pyridin-3-yl)methyl)benzyl)-1,7,13,19-tetraoxa-4,10,16,22-tetraazacyclotetracosan-2,5,8,11,14,17,20,23-octaone] |  | > 5 |  | 0.002 | 0.0001 | 20 |  |  |  | 
